Reference: patent publication US8574645B2, “Antimicrobial composition” (DSM IP Assets B.V., priority 2004, dated 2013)
Read-outs that look alike come from different tables or passages of the source.

Key:
[1] = assay type: physicochemical
Experimental: Cottage cheese was prepared following the standard procedure for cottage cheese making. The dry curd was obtained by addition of a starter culture to pasteurized skim milk. After acidification till pH 4.4 the curd was pasteurized and rinsed with water. The dry curd was mixed with the dressing at the ratio 66% curd and […]. Before mixing the curd and the dressing, the preservatives Delvocid® and Delvoplus® were added to the dressing. The preservative concentrations in the end products were 2.5 and 5 ppm of natamycin (5 and 10 ppm of Delvocid®) and 1.25 and 2.5 ppm of nisin (50 and 100 ppm of Delvoplus®). The moisture content of cottage cheese (dry curd mixed with the dressing) was 82%.
The procedure described in the International IDF (International Dairy Federation) Standard 140A:1992 for cheese was used to determine the concentration of natamycin in the cottage cheese samples. In total 12 different samples were analysed in triplicate. The remaining percentage of natamycin was calculated using the average of the triplicate. […] After 6 weeks of storage at refrigerated temperature, the average stability of natamycin in cottage cheese was of 92%.

[2] = system: Kluyveromyces marxianus CBS 1557; experiment: Antifungal activity in inoculated cottage cheese, viable cell enumeration; assay type: cell-based; conditions: for Log CFU/g of K. marxianus: nisin 0.00 ppm, cottage cheese, 4-7° C.
Experimental: (§1) This example describes the antifungal activity of low natamycin concentration (2.5 and 5 ppm) in cottage cheese, in presence of nisin. Cottage cheese was prepared as described above. After adding the dressing to the dry curd, the cottage cheese was inoculated with yeasts and fungal cells, Kluyveromyces marxianus CBS 1557 and Penicillium roqueforti CBS 304.97, respectively. Following the artificial contamination, natamycin and/or nisin was added to the cottage cheese at two different concentrations, 2.5 and 5 ppm for natamycin and 1.25 and 2.50 ppm for nisin. The antifungal activity of natamycin against the yeast and the mould cells was evaluated after 3 and 6 weeks of incubation at 4° C. through the enumeration of the viable cells in the inoculated samples, in presence or not of preservatives. The number of viable yeast of fungal cells was also determined in a negative sample, non inoculated cottage cheese without preservatives and in a positive control, sample artificially contaminated with yeast and fungal cells without preservative.

[3] = system: Penicillium roqueforti CBS 304.97; experiment: as above; assay type: cell-based; conditions: for Log spores/g of P. roqueforti: nisin 0.00 ppm, cottage cheese, 4-7° C.
Experimental: as §1

Listeria innocua LM35 = experiment: Antibacterial activity in inoculated cottage cheese, viable cell enumeration; assay type: cell-based; conditions: for Log CFU/g of L. innocua: nisin 0.00 ppm, cottage cheese, 4-7° C.
Experimental: This example describes the antibacterial activity of nisin (1.25 and 2.5 ppm) in cottage cheese, in presence of low natamycin concentration. Cottage cheese was prepared as described above. After adding the dressing to the dry curd, the cottage cheese was inoculated with yeasts, fungal cells and cells of Listeria innocua LM35. Following the artificial contamination, the cottage cheese was added with two nisin concentrations 1.25 and 2.5 ppm and/or in combination with natamycin at the concentration 2.5 or 5 ppm. The antibacterial activity of nisin against L. innocua was evaluated after 3 and 6 weeks of incubation at 4° C. through the enumeration of the viable cells in the inoculated samples, in presence or not of preservatives. The number of viable bacterial cells was also determined in a negative sample, non inoculated cottage cheese without preservatives and in a positive control, sample artificially contaminated with bacteria.

yeast and mould = experiment: Outgrowth of yeast and mould in or on food products; assay type: cell-based
most food born fungi = conditions: cited from earlier work
Gram positive bacteria = experiment: Outgrowth of Gram positive bacteria at the surface of food products; assay type: cell-based; conditions: applied at the surface of product, 0.0001 and 1 ppm nisin
[4] = natamycin at 2.5 or 5 ppm in cottage cheese, up to 6 weeks

C[C@@H]1C/C=C/C=C/C=C/C=C/[C@H](O[C@@H]2O[C@H](C)[C@@H](O)[C@H](N)[C@@H]2O)C[C@@H]2O[C@](O)(C[C@@H](O)C[C@H]3O[C@@H]3/C=C/C(=O)O1)C[C@H](O)[C@H]2C(=O)O [natamycin]
Stability of dissolved natamycin in water-containing product [1]: stable | Stability of natamycin in cottage cheese [1]: stable | Remaining percentage of natamycin ([1]; 0 h): 100% | Remaining percentage of natamycin, Average ([1]; 0 h): 100% | Remaining percentage of natamycin, Average ([1]; 504 h): 98% | Remaining percentage of natamycin, Average ([1]; 1008 h): 92% | Log CFU/g of K. marxianus ([2]; natamycin 2.50 ppm, 0 week): 1.70 Log CFU/g | Log CFU/g of K. marxianus ([2]; natamycin 2.50 ppm, 3 weeks): 1.70 Log CFU/g | Log CFU/g of K. marxianus ([2]; natamycin 2.50 ppm, 6 weeks): <1.00 Log CFU/g | Log CFU/g of K. marxianus ([2]; natamycin 5.00 ppm, 0 week): 1.30 Log CFU/g | Log CFU/g of K. marxianus ([2]; natamycin 5.00 ppm, 3 weeks): <1.00 Log CFU/g | Log CFU/g of K. marxianus ([2]; natamycin 5.00 ppm, 6 weeks): <1.00 Log CFU/g | Prevention of growth of K. marxianus [2, 4]: effective in preventing the growth | Log spores/g of P. roqueforti ([3]; natamycin 2.50 ppm, 0 week): 1.70 Log spores/g | Log spores/g of P. roqueforti ([3]; natamycin 2.50 ppm, 3 weeks): 1.70 Log spores/g | Log spores/g of P. roqueforti ([3]; natamycin 2.50 ppm, 6 weeks): <1.00 Log spores/g | Log spores/g of P. roqueforti ([3]; natamycin 5.00 ppm, 0 week): 1.60 Log spores/g | Log spores/g of P. roqueforti ([3]; natamycin 5.00 ppm, 3 weeks): <1.00 Log spores/g | Log spores/g of P. roqueforti ([3]; natamycin 5.00 ppm, 6 weeks): <1.00 Log spores/g | Prevention of growth of P. roqueforti [3, 4]: effective in preventing the growth | Log CFU/g of L. innocua (Listeria innocua LM35; natamycin 2.50 ppm, 0 week): 1.90 Log CFU/g | Log CFU/g of L. innocua (Listeria innocua LM35; natamycin 2.50 ppm, 3 weeks): 2.50 Log CFU/g | Log CFU/g of L. innocua (Listeria innocua LM35; natamycin 2.50 ppm, 6 weeks): 4.50 Log CFU/g | Log CFU/g of L. innocua (Listeria innocua LM35; natamycin 5.00 ppm, 0 week): 1.90 Log CFU/g | Log CFU/g of L. innocua (Listeria innocua LM35; natamycin 5.00 ppm, 3 weeks): 1.90 Log CFU/g | Log CFU/g of L. innocua (Listeria innocua LM35; natamycin 5.00 ppm, 6 weeks): 4.70 Log CFU/g | Effectiveness against yeast and mould (yeast and mould; applied at the surface of product, 0.01 to 10 ppm natamycin): extremely effective | Effectiveness against yeast and mould (yeast and mould; introduced into foodstuffs at concentrations whereby almost no crystal or solid form is present, ranging from 120 ppm based on water content): extremely effective | MIC (Minimal Inhibition Concentration) (most food born fungi): less than 10 ppm

nisin
Inhibition of growth of L. innocua (Listeria innocua LM35; nisin 1.25 and 2.5 ppm in cottage cheese, in presence or not of natamycin): inhibited the growth | Effectiveness against Gram positive bacteria (Gram positive bacteria): extremely effective
